Reference: US9938281B2 (Merck Sharp & Dohme Corp., priority 2012, dated 2018)

Legend:
PI3K-alpha = molecular target: T1, PI3K-alpha (Homo sapiens, UniProt P42336); assay: HTRF PI3K biochemical assay, alpha isoform; settings: ratio PI3K-alpha IC50 value / PI3K-delta IC50 value
T1 construct: purchased Upstate; Millipore 14-602

PI3K-delta = molecular target: T2, PI3K-delta (Homo sapiens, UniProt O00329); assay: HTRF PI3K biochemical assay, delta isoform; settings: form screened (neutral or TFA salt) given, read-out: PI3Kdelta IC50
T2 construct: purchased Upstate; Millipore 14-604
T2 sequence (O00329 whole entry, canonical isoform): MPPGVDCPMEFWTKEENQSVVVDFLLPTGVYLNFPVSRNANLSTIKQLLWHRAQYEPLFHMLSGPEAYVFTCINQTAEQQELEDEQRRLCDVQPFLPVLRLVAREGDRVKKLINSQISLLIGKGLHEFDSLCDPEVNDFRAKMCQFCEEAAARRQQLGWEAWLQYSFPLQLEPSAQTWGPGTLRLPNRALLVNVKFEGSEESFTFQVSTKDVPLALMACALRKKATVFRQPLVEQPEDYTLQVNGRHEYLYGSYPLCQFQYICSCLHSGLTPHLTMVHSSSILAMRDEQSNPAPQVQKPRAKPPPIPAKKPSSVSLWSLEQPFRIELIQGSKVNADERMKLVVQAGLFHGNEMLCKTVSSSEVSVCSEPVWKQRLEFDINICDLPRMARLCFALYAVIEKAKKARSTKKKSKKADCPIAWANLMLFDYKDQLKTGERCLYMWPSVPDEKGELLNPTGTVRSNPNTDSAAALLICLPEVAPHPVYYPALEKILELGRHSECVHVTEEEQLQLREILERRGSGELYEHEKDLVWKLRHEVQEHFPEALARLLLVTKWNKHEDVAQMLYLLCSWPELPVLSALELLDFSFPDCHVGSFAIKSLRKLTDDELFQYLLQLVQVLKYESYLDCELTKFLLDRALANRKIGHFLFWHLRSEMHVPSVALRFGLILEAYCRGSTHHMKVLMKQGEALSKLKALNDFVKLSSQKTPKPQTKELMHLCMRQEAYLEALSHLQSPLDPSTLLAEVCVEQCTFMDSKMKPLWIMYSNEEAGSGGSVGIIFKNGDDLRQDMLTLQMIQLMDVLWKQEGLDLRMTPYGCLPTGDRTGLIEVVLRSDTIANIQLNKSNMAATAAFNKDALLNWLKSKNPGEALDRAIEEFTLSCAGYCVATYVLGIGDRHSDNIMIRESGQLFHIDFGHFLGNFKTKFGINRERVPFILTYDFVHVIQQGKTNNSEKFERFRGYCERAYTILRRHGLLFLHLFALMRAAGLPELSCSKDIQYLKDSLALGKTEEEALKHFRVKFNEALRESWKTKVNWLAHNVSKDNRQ
T2 sequence (P27986 whole entry partner, canonical isoform): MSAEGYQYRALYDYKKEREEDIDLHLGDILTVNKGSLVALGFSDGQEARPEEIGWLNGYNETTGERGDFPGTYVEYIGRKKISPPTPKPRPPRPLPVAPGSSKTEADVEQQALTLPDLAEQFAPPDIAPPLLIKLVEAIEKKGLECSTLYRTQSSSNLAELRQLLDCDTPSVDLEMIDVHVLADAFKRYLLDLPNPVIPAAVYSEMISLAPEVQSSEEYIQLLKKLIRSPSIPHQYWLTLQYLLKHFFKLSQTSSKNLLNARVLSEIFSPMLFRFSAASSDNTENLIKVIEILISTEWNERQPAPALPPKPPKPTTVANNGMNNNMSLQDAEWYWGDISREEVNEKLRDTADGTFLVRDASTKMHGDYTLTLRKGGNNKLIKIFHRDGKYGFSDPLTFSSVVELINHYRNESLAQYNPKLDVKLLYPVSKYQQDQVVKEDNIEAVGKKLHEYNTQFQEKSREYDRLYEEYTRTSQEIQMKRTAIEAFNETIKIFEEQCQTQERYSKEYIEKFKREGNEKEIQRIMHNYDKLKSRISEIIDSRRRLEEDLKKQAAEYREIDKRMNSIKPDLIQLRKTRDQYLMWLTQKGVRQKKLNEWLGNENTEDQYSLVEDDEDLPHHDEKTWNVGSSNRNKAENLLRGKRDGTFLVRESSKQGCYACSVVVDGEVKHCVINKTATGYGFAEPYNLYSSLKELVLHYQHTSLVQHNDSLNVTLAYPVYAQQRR

T1 sequence (P42336 whole entry, canonical isoform): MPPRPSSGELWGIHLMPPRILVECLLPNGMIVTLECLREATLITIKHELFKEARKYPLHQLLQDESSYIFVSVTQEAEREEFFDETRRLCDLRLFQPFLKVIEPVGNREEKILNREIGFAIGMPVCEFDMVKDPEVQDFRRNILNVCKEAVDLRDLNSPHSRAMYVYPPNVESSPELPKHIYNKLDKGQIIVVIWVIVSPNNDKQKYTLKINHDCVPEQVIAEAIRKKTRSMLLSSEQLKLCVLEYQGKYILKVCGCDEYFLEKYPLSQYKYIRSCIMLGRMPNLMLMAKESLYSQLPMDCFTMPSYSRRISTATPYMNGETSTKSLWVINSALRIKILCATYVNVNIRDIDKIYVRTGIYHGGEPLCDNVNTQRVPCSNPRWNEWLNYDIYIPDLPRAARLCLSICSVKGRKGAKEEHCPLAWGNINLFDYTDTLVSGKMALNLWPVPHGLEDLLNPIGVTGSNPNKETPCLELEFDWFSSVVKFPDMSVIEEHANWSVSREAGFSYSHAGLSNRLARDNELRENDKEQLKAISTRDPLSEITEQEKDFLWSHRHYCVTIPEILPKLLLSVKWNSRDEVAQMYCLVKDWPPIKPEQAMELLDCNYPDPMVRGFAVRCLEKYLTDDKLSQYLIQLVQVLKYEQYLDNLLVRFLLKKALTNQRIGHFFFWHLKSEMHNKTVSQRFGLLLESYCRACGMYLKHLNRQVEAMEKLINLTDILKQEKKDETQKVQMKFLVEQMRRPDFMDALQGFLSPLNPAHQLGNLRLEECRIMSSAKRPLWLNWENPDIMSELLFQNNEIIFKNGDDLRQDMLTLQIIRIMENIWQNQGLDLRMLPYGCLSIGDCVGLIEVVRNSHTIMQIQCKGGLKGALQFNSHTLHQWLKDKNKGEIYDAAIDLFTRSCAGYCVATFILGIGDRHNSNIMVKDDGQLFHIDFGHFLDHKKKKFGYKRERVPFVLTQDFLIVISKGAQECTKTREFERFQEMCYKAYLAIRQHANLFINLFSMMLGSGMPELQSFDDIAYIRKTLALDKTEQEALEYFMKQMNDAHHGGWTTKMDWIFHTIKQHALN
T1 sequence (P27986 whole entry partner, canonical isoform): as the sequence (P27986 whole entry partner, canonical isoform) above

Row | Structure (SMILES) | Selectivity versus PI3Kalpha (PI3K-alpha) | IC50 (PI3K-delta)
1 | CCn1c(-c2cnc(C)nc2)nc2c(N[C@H]3CCN(C(=O)OCc4ccccc4)C3)ncnc21 [Compound 13-10, benzyl (3S)-3-{[9-ethyl-8-(2-methylpyrimidin-5-yl)-9H-purin-6-yl]amino}pyrrolidine-1-carboxylate] | >10 | 2 nM
2 | CCn1c(-c2ccc(C(F)(F)F)nc2)nc2c(N[C@H]3CCN(C(=O)[C@@H]4CC4(C)C)C3)ncnc21 [Compound 2-51, N-[(3S)-1-{[(1R)-2,2-dimethylcyclopropyl]carbonyl}pyrrolidin-3-yl]-9-ethyl-8-[6-(trifluoromethyl)pyridin-3-yl]-9H-purin-6-amine] | >10 | < 1 nM
3 | CCn1c(-c2cnc(C)nc2)nc2c(N[C@H]3CCN(C(=O)[C@H]4CCOC4)C3)ncnc21 [Compound 2-41, 9-ethyl-8-(2-methylpyrimidin-5-yl)-N-{(3S)-1-[(3S)-tetrahydrofuran-3-ylcarbonyl]pyrrolidin-3-yl}-9H-purin-6-amine] | >10 | 4.3 nM
4 | CCC(=O)N1CC[C@H](N(C)c2ncnc3c2nc(-c2cnc(OC)c(C)c2)n3CC)C1 [Compound 2-8, (S)-1-(3-((9-ethyl-8-(6-methoxy-5-methylpyridin-3-yl)-9H-purin-6-yl)(methyl)amino)pyrrolidin-1-yl)propan-1-one] | >10 | 2.2 nM
5 | CCn1c(C(=O)NCC(F)(F)F)nc2c(N[C@H]3CCN(C(=O)C4CC4)C3)ncnc21 [Compound 6-3, 6-{[(3S)-1-(cyclopropylcarbonyl)pyrrolidin-3-yl]amino}-9-ethyl-N-(2,2,2-trifluoroethyl)-9H-purine-8-carboxamide] | >10 | 6.7 nM
6 | CCn1c(-c2cnc(C)nc2)nc2c(NC3CN(C(=O)C4CC4)CC3C)ncnc21 (racemic) [Compound 3-16, N-[(3R,4R and 3S,4S)-1-(cyclopropylcarbonyl)-4-methylpyrrolidin-3-yl]-9-ethyl-8-(2-methylpyrimidin-5-yl)-9H-purin-6-amine] | >10 | 3.4 nM
7 | CCn1c(-c2cnc(C(C)(C)C)s2)nc2c(N(C)[C@H]3CCN(C(=O)OC(C)(C)C)C3)ncnc21 [Compound 1-7, (S)-tert-butyl 3-((8-(2-(tert-butyl)thiazol-5-yl)-9-ethyl-9H-purin-6-yl)(methyl)amino)pyrrolidine-1-carboxylate] | >10 | 6.7 nM
8 | CCn1c(-c2cnc(C)nc2)nc2c(NC3CN(C(=O)C4CC45CCCCC5)CC3C)ncnc21 (single isomer, unassigned) [Compound 2-88, 9-ethyl-8-(2-methylpyrimidin-5-yl)-N-[(3S,4R or 3R,4S)-4-methyl-1-((S and R)-spiro[2.5]oct-1-ylcarbonyl)pyrrolidin-3-yl]-9H-purin-6-amine] | >10 | < 1 nM
9 | CCn1ncc(-c2nc3c(N[C@@H]4CCN(C(=O)c5nc(C)oc5C)C4)ncnc3n2C)c1C [Compound 2-2, N-{(3R)-1-[(2,5-dimethyl-1,3-oxazol-4-yl)carbonyl]pyrrolidin-3-yl}-8-(1-ethyl-5-methyl-1H-pyrazol-4-yl)-9-methyl-9H-purin-6-amine] |  | 52 nM
10 | CCn1c(-c2cnc(C)nc2)nc2c(N[C@H]3CCN(c4ncccn4)C3)ncnc21 [Compound 4-2, 9-ethyl-8-(2-methylpyrimidin-5-yl)-N-[(3S)-1-pyrimidin-2-ylpyrrolidin-3-yl]-9H-purin-6-amine] | >10 | 6.9 nM
11 | CCn1c(-c2cnc(C)nc2)nc2c(N[C@H]3C[C@H](C(=O)NCCO)N(c4ccccn4)C3)ncnc21 [Compound 15-12, (4S)-4-{[9-ethyl-8-(2-methylpyrimidin-5-yl)-9H-purin-6-yl]amino}-N-(2-hydroxyethyl)-1-pyridin-2-yl-D-prolinamide] | >10 | 4.6 nM
12 | CCn1c(-c2cnc(C)nc2)nc2c(N[C@H]3CCN(C(=O)NCCOC)C3)ncnc21 [Compound 12-2, (3S)-3-{[9-ethyl-8-(2-methylpyrimidin-5-yl)-9H-purin-6-yl]amino}-N-(2-methoxyethyl)pyrrolidine-1-carboxamide] | >10 | 8.9 nM
13 | CCC(=O)N1CC[C@H](Nc2ncnc3c2nc(-c2ccc4cc[nH]c4c2)n3C)C1 [Compound 3-4, (S)-1-(3-((8-(1H-indol-6-yl)-9-methyl-9H-purin-6-yl)amino)pyrrolidin-1-yl)propan-1-one] | >10 | 7.7 nM
14 | CCn1c(-c2ccc(C(F)(F)F)nc2)nc2c(N[C@H]3CCN(C(=O)[C@H]4C[C@H](OC)C4)C3)ncnc21 [Compound 2-106, 9-ethyl-N-{(3S)-1-[(trans-3-methoxycyclobutyl)carbonyl]pyrrolidin-3-yl}-8-[6-(trifluoromethyl)pyridin-3-yl]-9H-purin-6-amine] | >10 | 1.2 nM
15 | CCn1c(-c2cnc(C)nc2)nc2c(NC3CCCC(NC(=O)c4cocn4)C3)ncnc21 (single isomer, unassigned) [Compound 5-8, N-(1S,3S or 1R,3R)-(3-{[9-ethyl-8-(2-methylpyrimidin-5-yl)-9H-purin-6-yl]amino}cyclohexyl)-1,3-oxazole-4-carboxamide] | >10 | 12 nM
16 | CCn1c(-c2cnc(C)nc2)nc2c(NC3CN(C(=O)C4CC4)CC3F)ncnc21 (racemic) [Compound 3-26, N-[(3R,4S and 3S,4R)-1-(cyclopropylcarbonyl)-4-fluoropyrrolidin-3-yl]-9-ethyl-8-(2-methylpyrimidin-5-yl)-9H-purin-6-amine] | >10 | 34 nM
17 | CCn1c(-n2cnc3ccccc32)nc2c(N[C@H]3CCN(C(=O)C4CC4)C3)ncnc21 [Compound 8-2, 8-(1H-benzimidazol-1-yl)-N-[(3S)-1-(cyclopropylcarbonyl)pyrrolidin-3-yl]-9-ethyl-9H-purin-6-amine] | >10 | < 1 nM
18 | CCn1c(C(=O)N(C)CC(F)(F)F)nc2c(N[C@H]3CCN(C(=O)C4CC4)C3)ncnc21 [Compound 6-15, 6-{[(3S)-1-(cyclopropylcarbonyl)pyrrolidin-3-yl]amino}-9-ethyl-N-methyl-N-(2,2,2-trifluoroethyl)-9H-purine-8-carboxamide] | >10 | 230 nM
19 | CCn1c(C#CCO)nc2c(N[C@H]3CCN(C(=O)C4CC4)C3)ncnc21 [Compound 16-4, 3-(6-{[(3S)-1-(cyclopropylcarbonyl)pyrrolidin-3-yl]amino}-9-ethyl-9H-purin-8-yl)prop-2-yn-1-ol] | >10 | 48 nM
20 | CCC(=O)N1CC[C@H](N(C)c2ncnc3c2nc(-c2cnc(C(C)(C)C)s2)n3CC)C1 [Compound 2-11, (S)-1-(3-((8-(2-(tert-butyl)thiazol-5-yl)-9-ethyl-9H-purin-6-yl)(methyl)amino)pyrrolidin-1-yl)propan-1-one] | >10 | 3.6 nM
21 | CCn1c(-c2cnc(C)nc2)nc2c(N[C@H]3CCN(C(=O)c4cc(C)on4)C3)ncnc21 [Compound 2-70, 9-ethyl-N-{(3S)-1-[(5-methylisoxazol-3-yl)carbonyl]pyrrolidin-3-yl}-8-(2-methylpyrimidin-5-yl)-9H-purin-6-amine] | >10 | 7.4 nM
22 | CCn1c(-c2cnc(OC)c(C)c2)nc2c(N[C@H]3CCN(C(=O)C4CC(F)(F)C4)C3)ncnc21 [Compound 3A-5, N-{(3S)-1-[(3,3-difluorocyclobutyl)carbonyl]pyrrolidin-3-yl}-9-ethyl-8-(6-methoxy-5-methylpyridin-3-yl)-9H-purin-6-amine] | >10 | < 1 nM
23 | CCn1c(-c2cnc(C)nc2)nc2c(N[C@H]3CCN(C(=O)NC4CC4)C3)ncnc21 [Compound 12-6, (3S)-N-cyclopropyl-3-{[9-ethyl-8-(2-methylpyrimidin-5-yl)-9H-purin-6-yl]amino}pyrrolidine-1-carboxamide] | >10 | 1.7 nM
24 | CCC1CN(C(=O)C2CC2)CC1Nc1ncnc2c1nc(-c1cnc(C)nc1)n2CC (racemic) [Compound 3-19, N-[(3R,4S and 3S,4R)-1-(cyclopropylcarbonyl)-4-ethylpyrrolidin-3-yl]-9-ethyl-8-(2-methylpyrimidin-5-yl)-9H-purin-6-amine] | >10 | 3.8 nM
25 | CCn1c(-c2cnc(C)nc2)nc2c(N[C@H]3CCN(C(=O)N4CC[C@H](OC)C4)C3)ncnc21 [Compound 12-14] | >10 | 1.6 nM
26 | CCn1c(C#CCOC)nc2c(N[C@H]3CCN(C(=O)C4CC4)C3)ncnc21 [Compound 16-3, N-[(3S)-1-(cyclopropylcarbonyl)pyrrolidin-3-yl]-9-ethyl-8-(3-methoxyprop-1-yn-1-yl)-9H-purin-6-amine] | >10 | 63 nM
27 | CCN(c1ncnc2c1nc(-c1cnc(C)nc1)n2CC)[C@H]1CCN(C(=O)C2CC2)C1 [Compound 3-28, N-[(3S)-1-(cyclopropylcarbonyl)pyrrolidin-3-yl]-N,9-diethyl-8-(2-methylpyrimidin-5-yl)-9H-purin-6-amine] | >10 | 6.7 nM
28 | CCn1c(-c2ccc(C(F)(F)F)nc2)nc2c(N[C@H]3CCN(C(=O)C4CCOC4)C3)ncnc21 (single isomer, unassigned) [Compound 2-102, 9-ethyl-N-{(3S)-1-[(3S or 3R)-tetrahydrofuran-3-ylcarbonyl]pyrrolidin-3-yl}-8-[6-(trifluoromethyl)pyridin-3-yl]-9H-purin-6-amine] | >10 | 
29 | CCn1c(-c2cnc(C)nc2)nc2c(N[C@H]3CCN(C(=O)C4CCCO4)C3)ncnc21 (single isomer, unassigned) [Compound 2-33, 9-ethyl-8-(2-methylpyrimidin-5-yl)-N-[(3S)-1-((R or S)-tetrahydrofuran-2-ylcarbonyl)pyrrolidin-3-yl]-9H-purin-6-amine] | >10 | 
